From article PMC10753699, “Synthesis of Some New 1,3,4-Oxadiazole Derivatives and Evaluation of Their Anticancer Activity” (ACS Omega, 2023)

Experiments:
MMP-9 enzyme = target: T1, MMP-9 enzyme (Homo sapiens, UniProt P14780); test: MMP-9 colorimetric inhibition assay; assay type: biochemical; details: for inhibition at 100 µg/mL: at 100 μg/mL
T1 construct: purchased EnzoLife Sciences Inc. (Farmingdale, New York, NY, USA)
From the text: As described in our previous study,[36] the method was applied in exactly the same manner. EnzoLife Sciences Inc. provided MMP-9 colorimetric kits (Farmingdale, New York, NY, USA). The MMP Colorimetric Drug Discovery Kits are a comprehensive test technique that uses a thiopeptide (Ac-PLG-[2-mercapto-4-methyl-pentanoyl]-LG-OC2H5) as a chromogenic substrate to screen MMP inhibitors. Using a microplate reader (BioTek, PowerWave, Gen5 software, Winooski, VT, USA) at room temperature, the UV absorbance was measured at 412 nm. NNGH was employed as an inhibitor of control.

C6 rat glioma cell line = test: MTT cell viability / cytotoxicity on C6; assay type: cell-based; details: mean ± S.D. of three determinations
Description: (§1) The MTT (3-(4,5-dimethylthiazol-2-yl)-2,5-diphenyltetrazolium bromide) method was applicated to assess the cell viability of L929, C6 and A549 cell lines against the tested compounds according to the reported data.[51] In 96-well plates with a flat bottom, the A549, C6, and L929 cells were cultivated at a density of 5 × 10^3 cells per well. […] After addition, they were incubated for a full day in culture wells. Following the incubation period, 20 μL of phosphate-buffered saline (PBS) (Gibco, Paisley, UK) containing 5 mg/mL MTT powder (Sigma-Aldrich, St. Louis, MO, USA) was added to each well. The medium was taken out of the plate and replaced with 100 μL of DMSO in each well to dissolve the dye. This was left for 2 to 4 h under the same conditions and then left for 10 min. At the conclusion of the procedure, purple formazan, the reduction product of the MTT agent, was formed by the mitochondrial dehydrogenase enzyme of intact cells. A microtiter plate reader (BioTek Plate Reader, Winooski, VT, USA) was used to measure the cells at 540 nm. Cell viability was measured as a percentage and contrasted with that of the cells in the control group. Half-maximal inhibitory concentration 50 (IC50) values were determined by repeating each concentration in three wells and identifying the drug concentrations that decreased the absorbance to 50% of control values. The medium control served as the basis for calculating the percentage of viable cells.

[1] = system: L929 murine fibroblast cell line; test: MTT cell viability / cytotoxicity on L929 (healthy cells); assay type: cell-based, mouse; details: mean ± S.D. of three determinations
Description: (§2) In 75 cm^2 sterile plastic tissue culture flasks, the human lung adenocarcinoma A549 and the mouse fibroblast L929 cell lines were cultured in 90% RPMI (Sigma, Deisenhofen, Germany) media supplemented with 10% (v/v) FBS (Gibco, Paisley, UK) and adherent monolayers of penicillin/streptomycin (100 units/mL) from Gibco, Paisley, UK. These cells were cultured at 37 °C in an environment that was humidified and contained 5% CO2.
as §1

[2] = system: A549 human lung cancer cell line; test: MTT cell viability / cytotoxicity on A549; assay type: cell-based; details: MTT, mean ± S.D. of three determinations
Description: as §2, §1

A549 cells [3] = test: Cell cycle analysis by flow cytometry; assay type: cell-based, human; details: A549, 24 h incubation
Description: Following a 24 h incubation period with the compounds, a cell cycle analysis measurement methodology was implemented in compliance with the manufacturer’s instructions for A549 cells (BD, Biosciences). Next, the cells were immersed in citrate buffer for a short while. At room temperature, the cells were centrifuged for 5 min at 400 g. After the supernatant was decanted, 250 μL of solution A was added to the pellet, and it was allowed to sit at room temperature for 10 min. Solution B (200 μL) was then added, carefully mixed, and incubated at room temperature for 10 min. Solution C (200 μL) was then added. It was gently mixed, allowed to stand at 4 °C for 10 min in the dark, and then examined using BD Bioscience’s MODFID software on a flow cytometer. This method was applied in our previous study.[54]

A549 cells [4] = test: Mitochondrial membrane depolarization (JC-1, flow cytometry); assay type: cell-based, human; details: A549, IC50 concentration, 24 h
Description: Staining of cells with JC-1 was realized according to the manufacturer’s recommendations of BD, Pharmingen Flow cytometry kit. […] For this purpose, cells were seeded at an optimal density in six-well plates (not exceeding 1 × 10^6/mL cells). The cells were then incubated with the substances to be tested at the appropriate concentration and time. After the treatment, each cell suspension was taken into a 15 mL polystyrene centrifuge tube and the cells were centrifuged at 400g for 5 min and removed from the supernatant. 0.5 mL of a freshly prepared working solution was added to each pellet, and the solution was vortexed. The test cells were soaked in a JC-1 working solution at 37 °C for 10–15 min, and the cells were washed twice. In the first wash, 2 mL of 1X assay buffer was added and the cells were suspended sensitively. Then, the cells were centrifuged at 400g for 5 min and the supernatant was removed, carefully. In the second wash, 1 mL of 1X assay buffer was added and vortexed. After the cells were centrifuged at 400g for 5 min, each cell pellet was suspended in 0.5 mL 1X assay buffer and vortexed. Finally, the cell was analyzed by a flow cytometer.

A549 cells [5] = test: Early/late apoptosis by Annexin V-FITC/PI flow cytometry; assay type: cell-based, human; details: A549, IC50 dose, 24 h incubation
Description: Phosphatidylserine externalization, a marker of early apoptosis, was assessed using the FITC Annexin V apoptosis detection kit (BD Pharmingen, San Jose, CA, USA) on a BD FACSAria flow cytometer. Following their collection, the A549 and L929 cells were twice washed in ice-cold PBS before being resuspended in 100 μL of binding buffer. The cells were treated with a volume of 5 μL (5 μg/mL) of Annexin V-FITC and PI, and they were incubated for 15 min at room temperature (20–25 °C) in the dark. Following that, 400 μL of binding buffer was added to the combination samples, and FACSDiva version 6.1.1 was used to analyze the samples on a BD FACSAria flow cytometer.

caspase-3 = test: Caspase-3 activation in A549 cells; assay type: cell-based, human; details: A549, IC50 of the compounds, 24 h
Description: The Spectrofluorometric Caspase-3 Assay kit (BD Pharmingen, Franklin Lakes, NJ) was used to assess the activation of caspase-3. The purpose of the kit was to measure the early indicator of cells going through apoptosis, known as caspase-3 or the DEVD-cleaving activity. First, 1 × 10^6 cells/mL of cells were resuspended in cold cell lysis buffer, rinsed with PBS, and then allowed to sit on ice for 30 min. […] In each reaction, a well containing 0.2 mL of 1 x HEPES buffer was filled with […] of reconstituted AcDEVD-AMC, a synthetic tetrapeptide fluorogenic substrate for caspase-3 activity. Each reaction/well received 20 μL of cell lysate. The reaction mixtures were incubated at 37 °C for 1 h. Using a microplate reader (Perkin-Elmer/Victor/X3) with an excitation wavelength of 380 nm and an emission wavelength of 460 nm, the amount of AMC released from Ac-DEVD-AMC was quantified. When compared with controls, apoptotic cell lysates containing active caspase-3 produced a significant emission. […] For all doses, duplicate wells were used. This experiment was performed according to Yurttaş et al.[52]

[6] = Mus musculus, L929, L929 healthy cell line
[7] = Homo sapiens, A549, A549 cell line

T1 sequence (P14780 107-444 limits assumed): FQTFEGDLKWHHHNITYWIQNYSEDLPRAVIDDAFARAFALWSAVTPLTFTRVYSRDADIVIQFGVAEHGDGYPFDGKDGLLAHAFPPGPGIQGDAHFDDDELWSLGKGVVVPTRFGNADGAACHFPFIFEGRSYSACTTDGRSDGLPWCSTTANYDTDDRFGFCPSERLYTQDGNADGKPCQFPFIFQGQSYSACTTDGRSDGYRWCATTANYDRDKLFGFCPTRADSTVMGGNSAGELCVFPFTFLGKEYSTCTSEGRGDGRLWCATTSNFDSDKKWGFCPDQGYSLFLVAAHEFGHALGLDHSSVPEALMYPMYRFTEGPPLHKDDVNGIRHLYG

| Compound | inhibition at 100 µg/mL (MMP-9 enzyme) | IC50 (C6 rat glioma cell line) | IC50 ([1]; L929 healthy cell line) | IC50 [1, 6] | IC50 ([2]; A549 cell line) | IC50 [2, 7] | % S (A549 cells [3]) | G0/G1% (A549 cells [3]) | G2/M % (A549 cells [3]) | mitochondrial membrane depolarization % (A549 cells [4]) | mitochondrial membrane polarization % (A549 cells [4]) | Q1: necrotic cells (A549 cells [5]) | Q2 + Q4: early and late apoptotic cells (A549 cells [5]) | Q2: late apoptotic cells (A549 cells [5]) | Q4: early apoptotic cells (A549 cells [5]) | % (+): caspase-3 activity positive cells (caspase-3) | % (−): caspase-3 activity negative cells (caspase-3) | Q3: viable cells (A549 cells [5]) | IC50 (MMP-9 enzyme) |
| --- | --- | --- | --- | --- | --- | --- | --- | --- | --- | --- | --- | --- | --- | --- | --- | --- | --- | --- | --- |
| CC(=O)Nc1ccccc1OCc1nnc(SCC(=O)Nc2nc3ccc([N+](=O)[O-])cc3s2)o1 [Compound 4d, 2-[(5-((2-Acetamidophenoxy)methyl)-1,3,4-oxadiazol-2-yl)thio]-N-(6-nitrobenzothiazol-2-yl)acetamide] | 27.6 ± 2.01% | 28.3 ± 12.1 µM | < 7.8 µM | < 7.96 µM | > 1000 µM | > 1030 µM |  |  |  |  |  |  |  |  |  |  |  |  |  |
| N.N.[Cl][Pt][Cl] [cisplatin, reference compound] |  |  |  |  | 4.98 ± 0.66 µM |  | 2.18% | 74.75% | 23.07% | 22.36% | 76.67% | 28.01% | 10.07% | 5.04% | 5.03% | 11.3% | 90.0% |  |  |
| CC(=O)Nc1ccccc1OCc1nnc(SCC(=O)Nc2ccc(Cl)cc2)o1 [Compound 4k, 2-[(5-((2-Acetamidophenoxy)methyl)-1,3,4-oxadiazol-2-yl)thio]-N-(4-chlorophenyl)acetamide] | 48.4 ± 3.56% | > 1000 µM |  | 38.2 ± 4.91 µM |  | 7.48 ± 0.58 µM | 18.11% | 63.31% | 18.58% | 6.29% | 93.04% | 33.19% | 17.98% | 10.35% | 7.63% | 1.8% | 98.5% | 48.83% |  |
| COc1ccc2nc(NC(=O)CSc3nnc(COc4ccccc4NC(C)=O)o3)sc2c1 [Compound 4c, 2-[(5-((2-Acetamidophenoxy)methyl)-1,3,4-oxadiazol-2-yl)thio]-N-(6-methoxybenzothiazol-2-yl)acetamide] | 30.6 ± 2.29% | 22.1 ± 23.7 µM |  | 8.52 ± 0.31 µM | > 1000 µM | > 1030 µM |  |  |  |  |  |  |  |  |  |  |  |  |  |
| CC(=O)Nc1ccccc1OCc1nnc(SCC(=O)Nc2nc3ccc(Cl)cc3s2)o1 [Compound 4b, 2-[(5-((2-Acetamidophenoxy)methyl)-1,3,4-oxadiazol-2-yl)thio]-N-(6-chlorobenzothiazol-2-yl)acetamide] | 49.5 ± 1.86% | 19.9 ± 6.33 µM |  | < 7.96 µM |  | 24.5 ± 5.76 µM |  |  |  |  |  |  |  |  |  |  |  |  |  |
| COc1ccc(NC(=O)CSc2nnc(COc3ccccc3NC(C)=O)o2)cc1 [Compound 4i, 2-[(5-((2-Acetamidophenoxy)methyl)-1,3,4-oxadiazol-2-yl)thio]-N-(4-methoxyphenyl)acetamide] | 40.9 ± 2.54% |  |  | 14.6 ± 1.59 µM |  | 1.59 ± 0.44 µM | 8.09% | 78.78% | 12.14% | 8.84% | 90.51% | 30.12% | 21.54% | 9.75% | 11.79% | 1.9% | 98.2% | 48.35% |  |
| COc1ccc(S(=O)(=O)N(CC(=O)NO)CC(C)C)cc1 [NNGH, N-isobutyl-N-(4-methoxyphenylsulfonyl)glycyl hydroxamic, reference compound] |  |  |  |  |  |  |  |  |  |  |  |  |  |  |  |  |  |  | 0.0074 ± 0.0002 µM |
| CC(=O)Nc1ccccc1OCc1nnc(SCC(=O)Nc2ccc(F)cc2)o1 [Compound 4l, 2-[(5-((2-Acetamidophenoxy)methyl)-1,3,4-oxadiazol-2-yl)thio]-N-(4-fluorophenyl)acetamide] | > 75% | > 1000 µM |  | 397 ± 10.2 µM |  | 1.8 ± 0.12 µM | 6.62% | 69.36% | 24.03% | 8.71% | 90.58% | 32.81% | 18.49% | 11.46% | 7.03% | 1.4% | 98.8% | 48.70% | 2.55 ± 0.66 µM |
